Laboratory results: PubChem BioAssay (NCI)
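In this assay, cells in 96-well plates receive the compound at five concentrations for 48 hours. Endpoints are linearly interpolated between the surrounding concentrations. TGI is the concentration that stops growth completely.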

Columns and labels:
Assay in all cases: NCI anticancer screen, dose series, 48 h
[1] = system: SK-MEL-28 melanoma
[2] = system: MDA-MB-435
[3] = system: DMS 114 small cell lung
[4] = system: DMS 273 small cell lung
[5] = system: DLD-1 colon
[6] = system: RPMI-8226 leukemia
[7] = system: HOP-62 NSCLC
[8] = system: KM20L2 colon
[9] = system: U251 CNS
[10] = system: M14 melanoma
[11] = system: EKVX NSCLC
[12] = system: UACC-62 melanoma
[13] = system: SF-268 CNS
[14] = system: CAKI-1 renal
[15] = system: ACHN renal
[16] = system: HCT-15 colon
[17] = system: LOX IMVI melanoma
[18] = system: SN12C renal
[19] = system: A498 renal
[20] = system: OVCAR-8 ovarian
[21] = system: XF 498 CNS
[22] = system: RXF-631 renal
[23] = system: HOP-18 NSCLC
[24] = system: HCC-2998 colon
[25] = system: SR leukemia
[26] = system: SNB-78 CNS
[27] = system: NCI-H460 lung
[28] = system: HCT-116 colon
[29] = system: OVCAR-4 ovarian
[30] = system: PC-3 prostate
[31] = system: SF-539 CNS
[32] = system: DU-145 prostate
[33] = system: SF-295 CNS
[34] = system: SW-620 colon
[35] = system: LXFL 529 NSCLC
[36] = system: CCRF-CEM leukemia
[37] = system: SNB-75 CNS
[38] = system: UACC-257 melanoma
[39] = system: TK-10 renal
[40] = system: MCF7 breast
[41] = system: IGROV1 ovarian
[42] = system: BT-549 breast
[43] = system: A549 NSCLC
[44] = system: K-562 leukemia
[45] = system: NCI-H23 lung
[46] = system: HT29 colon
[47] = system: RXF 393 renal
[48] = system: SNB-19 CNS
[49] = system: SK-OV-3 ovarian
[50] = system: KM12 colon
[51] = system: HL-60(TB) leukemia
[52] = system: MDA-N
[53] = system: OVCAR-3 ovarian
[54] = system: T-47D breast
[55] = system: SK-MEL-2 melanoma
[56] = system: HS 578T breast
[57] = system: OVCAR-5 ovarian
[58] = system: COLO 205 colon
[59] = system: NCI-H226 lung
[60] = system: UO-31 renal
[61] = system: 786-0 renal
[62] = system: MALME-3M melanoma
[63] = system: SK-MEL-5 melanoma
[64] = system: MOLT-4 leukemia
[65] = system: HOP-92 NSCLC
[66] = system: NCI-H522 lung
[67] = system: M19-MEL melanoma

## C=C(CN(C)C)C(=O)c1ccc(OC2OC(COC(C)=O)C(OC(C)=O)C(OC(C)=O)C2OC(C)=O)cc1 (stereo not drawn)
[1]
  TGI: 9.22 µM
[2]
  TGI: 14.2 µM
[3]
  TGI: 14.6 µM
[4]
  TGI: > 51.7 µM
[5]
  TGI: 3.83 µM
[6]
  TGI: > 100 µM
[7]
  TGI: 24.3 µM
[8]
  TGI: 40.8 µM
[9]
  TGI: 46.2 µM
[10]
  TGI: 11.2 µM
[11]
  TGI: 54.2 µM
[12]
  TGI: 22.4 µM
[13]
  TGI: 62 µM
[14]
  TGI: 9.54 µM
[15]
  TGI: 3.21 µM
[16]
  TGI: 11.3 µM
[17]
  TGI: 8.49 µM
[18]
  TGI: 26.2 µM
[19]
  TGI: 21 µM
[20]
  TGI: 19.2 µM
[21]
  TGI: 9.77 µM
[22]
  TGI: 29.3 µM
[23]
  TGI: 9.82 µM
[24]
  TGI: 36.8 µM
[25]
  TGI: 4.94 µM
[26]
  TGI: 50.8 µM
[27]
  TGI: 40.8 µM
[28]
  TGI: 6.12 µM
[29]
  TGI: > 29.2 µM
[30]
  TGI: 32 µM
[31]
  TGI: 30.6 µM
[32]
  TGI: 31.3 µM
[33]
  TGI: 36 µM
[34]
  TGI: 3.17 µM
[35]
  TGI: 2.9 µM
[36]
  TGI: 0.342 µM
[37]
  TGI: 38.5 µM
[38]
  TGI: 5.94 µM
[39]
  TGI: 7.06 µM
[40]
  TGI: 5.51 µM
[41]
  TGI: 36.1 µM
[42]
  TGI: 10.8 µM
[43]
  TGI: 45.2 µM
[44]
  TGI: 0.474 µM
[45]
  TGI: 43.3 µM
[46]
  TGI: 12.2 µM
[47]
  TGI: 3.69 µM
[48]
  TGI: 39.4 µM
[49]
  TGI: 35.5 µM
[50]
  TGI: 41.6 µM
[51]
  TGI: > 100 µM
[52]
  TGI: 11.1 µM
[53]
  TGI: 14.5 µM
[54]
  TGI: 15.7 µM
[55]
  TGI: 33.3 µM
[56]
  TGI: > 83.7 µM
[57]
  TGI: 37.4 µM
[58]
  TGI: 3.17 µM
[59]
  TGI: 19.8 µM
[60]
  TGI: 6.73 µM
[61]
  TGI: 3.82 µM
[62]
  TGI: 7.51 µM
[63]
  TGI: 20.3 µM

## NC1CCC[C@H]1O (stereo partly drawn)
[1]
  TGI: > 100 µM
[3]
  TGI: > 100 µM
[4]
  TGI: > 100 µM
[5]
  TGI: > 100 µM
[6]
  TGI: > 100 µM
[7]
  TGI: > 100 µM
[8]
  TGI: > 100 µM
[9]
  TGI: > 100 µM
[10]
  TGI: > 100 µM
[11]
  TGI: > 100 µM
[12]
  TGI: > 100 µM
[13]
  TGI: > 100 µM
[15]
  TGI: > 100 µM
[16]
  TGI: > 100 µM
[17]
  TGI: > 100 µM
[18]
  TGI: > 100 µM
[19]
  TGI: > 100 µM
[20]
  TGI: > 100 µM
[21]
  TGI: > 100 µM
[22]
  TGI: > 100 µM
[23]
  TGI: > 100 µM
[24]
  TGI: > 100 µM
[26]
  TGI: > 100 µM
[27]
  TGI: > 100 µM
[28]
  TGI: > 100 µM
[29]
  TGI: > 100 µM
[31]
  TGI: > 100 µM
[33]
  TGI: > 100 µM
[34]
  TGI: > 100 µM
[36]
  TGI: > 100 µM
[37]
  TGI: > 100 µM
[38]
  TGI: > 100 µM
[39]
  TGI: > 100 µM
[64]
  TGI: > 100 µM
[41]
  TGI: > 100 µM
[43]
  TGI: > 100 µM
[44]
  TGI: > 100 µM
[45]
  TGI: > 100 µM
[46]
  TGI: > 100 µM
[47]
  TGI: > 100 µM
[48]
  TGI: > 100 µM
[49]
  TGI: > 100 µM
[65]
  TGI: > 100 µM
[50]
  TGI: > 100 µM
[66]
  TGI: > 100 µM
[51]
  TGI: > 100 µM
[53]
  TGI: > 100 µM
[55]
  TGI: > 100 µM
[58]
  TGI: > 100 µM
[59]
  TGI: > 100 µM
[60]
  TGI: > 100 µM
[61]
  TGI: > 100 µM
[67]
  TGI: > 100 µM
[62]
  TGI: > 100 µM
[63]
  TGI: > 100 µM
